Experimental data as given in PubChem BioAssay (NCI).
Where “and” joins values, the source holds several entries; their conditions need not be identical. Equal values may be shown once.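 Method: 48-hour compound exposure of cells in 96-well plates, five concentrations, linear interpolation of endpoints. GI50: concentration for 50% inhibition of growth. TGI: concentration producing complete growth inhibition.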

How the values were obtained:
Assay in all cases: NCI tumour cell line growth inhibition, 48 h
[1] = system: CCRF-CEM leukemia
[2] = system: MOLT-4 leukemia
[3] = system: UACC-257 melanoma
[4] = system: SF-295 CNS
[5] = system: SW-620 colon
[6] = system: BT-549 breast
[7] = system: SK-MEL-28 melanoma
[8] = system: NCI-H23 lung
[9] = system: TK-10 renal
[10] = system: DU-145 prostate

Structure (SMILES): C=C1C(=O)O[C@H]2[C@H]1CC/C(COC(=O)c1ccc(C#N)cc1)=C\CC[C@@]1(C)O[C@@H]21
- GI50 [1]: 0.906 µM
- TGI [1]: 6.47 µM
- GI50 [2]: 2.37 µM
- TGI [2]: 6.52 µM
- GI50 [3]: 1.69 µM
- TGI [3]: 4.1 µM
- GI50 [4]: 8.16 µM
- TGI [4]: 20.7 µM
- GI50 [5]: 1.27 µM
- TGI [5]: 2.88 µM
- GI50 [6]: 1.44 µM
- TGI [6]: 3.15 µM
- GI50 [7]: 2.2 µM
- TGI [7]: 4.82 µM
- GI50 [8]: 2.25 µM
- TGI [8]: 6 µM
- GI50 [9]: 3.99 µM
- TGI [9]: 10.8 µM
- GI50 [10]: 1.5 µM
- TGI [10]: 2.83 µM

Structure (SMILES): COc1ccc(C(=O)COc2cccc(/C=C3\CSc4ccc(C)cc4C3=O)c2)cc1
- GI50 [1]: 2.76 µM
- TGI [1]: > 100 µM
- GI50 [2]: 3.13 µM
- TGI [2]: 10.2 µM
- GI50 [3]: 49.2 µM
- TGI [3]: > 100 µM
- GI50 [4]: 15.8 µM
- TGI [4]: > 100 µM
- GI50 [5]: 2.03 µM
- TGI [5]: 4.74 µM
- GI50 [6]: 27.6 µM
- TGI [6]: > 100 µM
- GI50 [7]: 17.4 µM
- TGI [7]: 45.5 µM
- GI50 [8]: 6.99 µM
- TGI [8]: > 100 µM
- GI50 [9]: 19.8 µM
- TGI [9]: > 100 µM
- GI50 [10]: 64.5 µM
- TGI [10]: > 100 µM

Structure (SMILES): COC1=Nc2ccccc2S(=O)(=O)C=C1
- GI50 [1]: 2.85 µM
- TGI [1]: > 100 µM
- GI50 [2]: 0.489 µM and 0.44 µM
- TGI [2]: 2.47 µM
- GI50 [3]: 0.671 µM
- TGI [3]: 20.5 µM
- TGI [4]: > 88.1 µM
- GI50 [5]: 0.875 µM
- TGI [5]: 3.46 µM
- GI50 [6]: 0.678 µM
- TGI [6]: 19.1 µM
- TGI [7]: 19.9 µM
- TGI [8]: 21.4 µM
- TGI [9]: 11.3 µM
- TGI [10]: 31.4 µM
